# According to patent US11377442B2, “Small molecule agonists and antagonists of NR2F6 activity” (ZANDER THERAPEUTICS, INC., priority 2016, dated 2022):
# Where two headings read alike, the source gives them in different places.
# Experiments:
# Type in all cases: cell-based
# ERα = target: T1, ERα (Homo sapiens, UniProt P03372); test: Counterscreening, Firefly signal with ERα transient transfection (Firefly_ERa); settings: ERα transient transfection, 10 μM
# T1 construct: expressed in transfected cells
# T1 sequence (P03372 1-595): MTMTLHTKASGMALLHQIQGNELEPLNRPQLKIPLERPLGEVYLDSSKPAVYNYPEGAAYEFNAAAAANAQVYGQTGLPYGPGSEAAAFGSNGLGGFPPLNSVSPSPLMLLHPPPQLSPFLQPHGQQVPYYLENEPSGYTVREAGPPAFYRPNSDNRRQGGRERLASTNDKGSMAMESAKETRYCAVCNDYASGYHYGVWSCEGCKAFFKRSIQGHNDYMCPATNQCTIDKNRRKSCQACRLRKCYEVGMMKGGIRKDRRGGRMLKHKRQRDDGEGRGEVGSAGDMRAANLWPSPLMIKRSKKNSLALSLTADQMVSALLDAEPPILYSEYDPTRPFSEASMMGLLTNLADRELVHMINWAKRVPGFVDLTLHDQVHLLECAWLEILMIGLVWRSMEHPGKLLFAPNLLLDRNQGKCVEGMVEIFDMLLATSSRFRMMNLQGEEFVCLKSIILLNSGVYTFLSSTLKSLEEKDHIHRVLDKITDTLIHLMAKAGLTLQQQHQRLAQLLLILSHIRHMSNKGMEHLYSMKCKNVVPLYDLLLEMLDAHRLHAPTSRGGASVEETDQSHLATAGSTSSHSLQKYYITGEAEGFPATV
# Experimental: The methodology for screening candidate compounds as NR2F6 agonists was as follows: For primary screening, hit criteria was ACT %>DMSO control+5*SD (DSO control) at 10 μM, or any compound with S/B>2. For rescreening, hit criteria was ACT %>DMSO control+3*SD (DSO control) in each replicate at 10 μM. For counterscreening, hit criteria was mean ACT<DMSO control+3*SD (DMSO control) with ERα transient transfection in duplicate at 10 μM.
# Renilla = Renilla signal in NR2F6 agonist screening, cmpd/DMSO; settings: for fold induction at 0.5 µM / fold induction at 2 µM / fold induction at 10 µM / fold induction at 40 µM: Renilla, F4
# NR2F6 = target: T2, NR2F6 (Homo sapiens, UniProt P10588); test: NR2F6 agonist screening, Firefly signal cmpd/DMSO
# T2 construct: expressed in transfected cells; also transient transfection
# T2 sequence (P10588 1-404): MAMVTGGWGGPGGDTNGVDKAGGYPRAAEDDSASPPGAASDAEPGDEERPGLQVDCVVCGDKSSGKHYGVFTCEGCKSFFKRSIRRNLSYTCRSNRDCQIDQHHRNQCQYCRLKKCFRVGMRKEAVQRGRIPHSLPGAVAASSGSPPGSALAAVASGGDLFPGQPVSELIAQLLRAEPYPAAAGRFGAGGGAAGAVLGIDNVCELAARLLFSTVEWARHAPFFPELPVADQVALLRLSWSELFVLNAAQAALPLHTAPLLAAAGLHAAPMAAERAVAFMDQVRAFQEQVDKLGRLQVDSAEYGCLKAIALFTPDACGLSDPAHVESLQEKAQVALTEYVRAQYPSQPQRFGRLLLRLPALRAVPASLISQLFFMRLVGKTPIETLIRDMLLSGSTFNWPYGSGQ
# Renilla_ERa = test: Renilla signal in ERα counterscreen (Renilla_ERa); settings: ERα transient transfection, 10 μM
# NR2F6 LBD = target: T3, NR2F6 LBD (Homo sapiens, UniProt P10588); test: NR2F6 LBD transient transfection; settings: LBD
# T3 construct: expressed in transfected cells
# T3 sequence (P10588 165-393 limits assumed): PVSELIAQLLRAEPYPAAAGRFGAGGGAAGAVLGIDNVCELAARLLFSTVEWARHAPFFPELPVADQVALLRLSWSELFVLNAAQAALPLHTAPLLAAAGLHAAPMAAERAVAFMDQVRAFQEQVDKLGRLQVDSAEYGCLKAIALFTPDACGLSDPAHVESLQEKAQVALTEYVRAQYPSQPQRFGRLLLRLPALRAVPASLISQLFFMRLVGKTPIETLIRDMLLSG
# Outline: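 LBD-transfected cells treated at 40, 10, 2 and 0.5 μM (4 replicates); cytotoxicity measured in parallel, normalized to DMSO (0%) and zero signal (100%). Higher concentrations excluded where signal loss reflected toxicity.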
# HEK293 pGL4 = test: Firefly_pGL signal, cmpd/DMSO (pGL4 control cells); settings: Homo sapiens
# [1] = first set screening, 10 μM, repeat 1
# [2] = first set screening, 10 μM, repeat 2
# [3] = read-out: Renilla, F4, cmpd/DMSO (mean)
# [4] = 1% FBS, read-out: Renilla, F4, 1% FBS, cmpd/DMSO (mean)
# [5] = 10% FBS, read-out: Renilla, F4, 10% FBS, cmpd/DMSO (mean)
# [6] = HEK293, 0.5 uM, pGL4, read-out: Firefly pGL4, cmpd/DMSO (mean)
# [7] = HEK293, 2 uM, pGL4, read-out: Firefly pGL4, cmpd/DMSO (mean)
# [8] = HEK293, 10 uM, pGL4, read-out: Firefly pGL4, cmpd/DMSO (mean)
# [9] = HEK293, 40 uM, pGL4, read-out: Firefly pGL4, cmpd/DMSO (mean)
# [10] = HEK293, pGL4, 1% FBS, 0.5 uM, read-out: Firefly, pGL4, 1% FBS, cmpd/DMSO (mean)
# [11] = HEK293, pGL4, 1% FBS, 2 uM, read-out: Firefly, pGL4, 1% FBS, cmpd/DMSO (mean)
# [12] = HEK293, pGL4, 1% FBS, 10 uM, read-out: Firefly, pGL4, 1% FBS, cmpd/DMSO (mean)
# [13] = HEK293, pGL4, 1% FBS, 40 uM, read-out: Firefly, pGL4, 1% FBS, cmpd/DMSO (mean)
# [14] = HEK293, pGL4, 10% FBS, 0.5 uM, read-out: Firefly, pGL4, 10% FBS, cmpd/DMSO (mean)
# [15] = HEK293, pGL4, 10% FBS, 2 uM, read-out: Firefly, pGL4, 10% FBS, cmpd/DMSO (mean)
# [16] = HEK293, pGL4, 10% FBS, 10 uM, read-out: Firefly, pGL4, 10% FBS, cmpd/DMSO (mean)
# [17] = HEK293, pGL4, 10% FBS, 40 uM, read-out: Firefly, pGL4, 10% FBS, cmpd/DMSO (mean)
compound,measurement,setting,value
O=c1[nH]c(CS(=O)(=O)c2ccccc2)nc2sc3c(c12)CCCC3 [Compound 25],"Firefly_ERa, cmpd/DMSO repeat 1",ERα; repeat 1,1.3
same,"Firefly_ERa, cmpd/DMSO repeat 2",ERα; repeat 2,0.7
same,"Renilla, cmpd/DMSO repeat 1",Renilla; [1],3.1
same,"Renilla, cmpd/DMSO repeat 2",Renilla; [2],2.1
same,"Firefly, cmpd/DMSO repeat 1",NR2F6; [1],2.4
same,"Firefly, cmpd/DMSO repeat 2",NR2F6; [2],1.9
same,"Renilla_ERa, cmpd/DMSO repeat 1",Renilla_ERa; repeat 1,0.9
same,"Renilla_ERa, cmpd/DMSO repeat 2",Renilla_ERa; repeat 2,1.0
CC(C)CCN[C@H]1CS(=O)(=O)C[C@@H]1S(=O)(=O)c1cccs1 [Compound D110],"Firefly LBD, cmpd/DMSO (mean)",NR2F6 LBD; 0.5 uM,1.1
same,"Firefly LBD, cmpd/DMSO (mean)",NR2F6 LBD; 2 uM,1.4
same,"Firefly LBD, cmpd/DMSO (mean)",NR2F6 LBD; 10 uM,3.0
same,"Firefly LBD, cmpd/DMSO (mean)",NR2F6 LBD; 40 uM,0.8
same,fold induction at 0.5 µM,Renilla; [3],1.1
same,fold induction at 2 µM,Renilla; [3],1.1
same,fold induction at 10 µM,Renilla; [3],1.3
same,fold induction at 40 µM,Renilla; [3],1.4
same,fold induction at 0.5 µM,Renilla; [4],1
same,fold induction at 2 µM,Renilla; [4],1.1
same,fold induction at 10 µM,Renilla; [4],1.5
same,fold induction at 40 µM,Renilla; [4],1.5
same,fold induction at 0.5 µM,Renilla; [5],1
same,fold induction at 2 µM,Renilla; [5],1
same,fold induction at 10 µM,Renilla; [5],1.5
same,fold induction at 40 µM,Renilla; [5],2.4
same,fold induction at 0.5 µM,HEK293 pGL4; [6],1.2
same,fold induction at 2 µM,HEK293 pGL4; [7],1.4
same,fold induction at 10 µM,HEK293 pGL4; [8],3.3
same,fold induction at 40 µM,HEK293 pGL4; [9],0.7
same,fold induction at 0.5 µM,HEK293 pGL4; [10],1
same,fold induction at 2 µM,HEK293 pGL4; [11],1.2
same,fold induction at 10 µM,HEK293 pGL4; [12],1.7
same,fold induction at 40 µM,HEK293 pGL4; [13],0.8
same,fold induction at 0.5 µM,HEK293 pGL4; [14],1.2
same,fold induction at 2 µM,HEK293 pGL4; [15],1.2
same,fold induction at 10 µM,HEK293 pGL4; [16],1.8
same,fold induction at 40 µM,HEK293 pGL4; [17],2.6
same,"Firefly F4, cmpd/DMSO (mean)",NR2F6; 0.5 uM,1.7
same,"Firefly F4, cmpd/DMSO (mean)",NR2F6; 2 uM,1.9
same,"Firefly F4, cmpd/DMSO (mean)",NR2F6; 10 uM,3.5
same,"Firefly F4, cmpd/DMSO (mean)",NR2F6; 40 uM,1.4
same,"F4, Firefly/Renilla for S/B(F4) > 3","NR2F6; 1% FBS, 10 uM",2.5
same,"Firefly, F4/pGL4 for S/B(F4) > 3","NR2F6; 1% FBS, 10 uM",2.3
same,"F4, Firefly/Renilla for S/B(F4) > 3","NR2F6; 10% FBS, 40 uM",2.5
same,"Firefly, F4/pGL4 for S/B(F4) > 3","NR2F6; 10% FBS, 40 uM",2.3
same,"Firefly, F4, 1% FBS, cmpd/DMSO (mean)","NR2F6; 1% FBS, 0.5 uM",0.8
same,"Firefly, F4, 1% FBS, cmpd/DMSO (mean)","NR2F6; 1% FBS, 2 uM",1.4
same,"Firefly, F4, 1% FBS, cmpd/DMSO (mean)","NR2F6; 1% FBS, 10 uM",3.8
same,"Firefly, F4, 1% FBS, cmpd/DMSO (mean)","NR2F6; 1% FBS, 40 uM",0.8
same,"Firefly, F4, 10% FBS, cmpd/DMSO (mean)","NR2F6; 10% FBS, 0.5 uM",1.3
same,"Firefly, F4, 10% FBS, cmpd/DMSO (mean)","NR2F6; 10% FBS, 2 uM",1.0
same,"Firefly, F4, 10% FBS, cmpd/DMSO (mean)","NR2F6; 10% FBS, 10 uM",2.4
same,"Firefly, F4, 10% FBS, cmpd/DMSO (mean)","NR2F6; 10% FBS, 40 uM",5.9
CC(=O)N1CCN([C@H]2CS(=O)(=O)C[C@@H]2S(=O)(=O)c2ccc(F)c(C)c2)CC1 [Compound D116],"Firefly LBD, cmpd/DMSO (mean)",NR2F6 LBD; 0.5 uM,0.9
same,"Firefly LBD, cmpd/DMSO (mean)",NR2F6 LBD; 2 uM,1.2
same,"Firefly LBD, cmpd/DMSO (mean)",NR2F6 LBD; 10 uM,1.1
same,"Firefly LBD, cmpd/DMSO (mean)",NR2F6 LBD; 40 uM,1.2
same,fold induction at 0.5 µM,Renilla; [3],1
same,fold induction at 2 µM,Renilla; [3],1.1
same,fold induction at 10 µM,Renilla; [3],1.1
same,fold induction at 40 µM,Renilla; [3],1.1
same,fold induction at 0.5 µM,Renilla; [4],1
same,fold induction at 2 µM,Renilla; [4],1.1
same,fold induction at 10 µM,Renilla; [4],1
same,fold induction at 40 µM,Renilla; [4],1.2
same,fold induction at 0.5 µM,Renilla; [5],0.8
same,fold induction at 2 µM,Renilla; [5],0.9
same,fold induction at 10 µM,Renilla; [5],0.9
same,fold induction at 40 µM,Renilla; [5],1.2
same,fold induction at 0.5 µM,HEK293 pGL4; [6],1
same,fold induction at 2 µM,HEK293 pGL4; [7],1.2
same,fold induction at 10 µM,HEK293 pGL4; [8],1.1
same,fold induction at 40 µM,HEK293 pGL4; [9],1.4
same,fold induction at 0.5 µM,HEK293 pGL4; [10],1.6
same,fold induction at 2 µM,HEK293 pGL4; [11],1
same,fold induction at 10 µM,HEK293 pGL4; [12],1.7
same,fold induction at 40 µM,HEK293 pGL4; [13],1.4
same,fold induction at 0.5 µM,HEK293 pGL4; [14],1.1
same,fold induction at 2 µM,HEK293 pGL4; [15],1.1
same,fold induction at 10 µM,HEK293 pGL4; [16],1.4
same,fold induction at 40 µM,HEK293 pGL4; [17],1.5
same,"Firefly F4, cmpd/DMSO (mean)",NR2F6; 0.5 uM,1.5
same,"Firefly F4, cmpd/DMSO (mean)",NR2F6; 2 uM,1.0
same,"Firefly F4, cmpd/DMSO (mean)",NR2F6; 10 uM,1.4
same,"Firefly F4, cmpd/DMSO (mean)",NR2F6; 40 uM,1.2
same,"Firefly, F4, 1% FBS, cmpd/DMSO (mean)","NR2F6; 1% FBS, 0.5 uM",1.2
same,"Firefly, F4, 1% FBS, cmpd/DMSO (mean)","NR2F6; 1% FBS, 2 uM",0.9
same,"Firefly, F4, 1% FBS, cmpd/DMSO (mean)","NR2F6; 1% FBS, 10 uM",0.9
same,"Firefly, F4, 1% FBS, cmpd/DMSO (mean)","NR2F6; 1% FBS, 40 uM",1.1
same,"Firefly, F4, 10% FBS, cmpd/DMSO (mean)","NR2F6; 10% FBS, 0.5 uM",1.1
same,"Firefly, F4, 10% FBS, cmpd/DMSO (mean)","NR2F6; 10% FBS, 2 uM",1.4
same,"Firefly, F4, 10% FBS, cmpd/DMSO (mean)","NR2F6; 10% FBS, 10 uM",1.3
same,"Firefly, F4, 10% FBS, cmpd/DMSO (mean)","NR2F6; 10% FBS, 40 uM",0.8
